Measurements taken from the NIST ThermoML archive (doi:10.1021/je8006265).
Numbers after ± are expanded uncertainties.

Settings: 298.15 K; 101.33 kPa; Crystal

mass density	Compound
1216.68 ± 1.9 kg/m3	c1ccc2[nH]ccc2c1 [1H-indole]

Same assay, conditions: 298.15 K; 101.33 kPa; Liquid

mass density	Compound
1089.45 ± 0.31 kg/m3	c1ccc2ncccc2c1 [quinoline]
965.9 ± 2.9 kg/m3	c1cc[nH]c1 [pyrrole]
773.19 ± 0.32 kg/m3	CCCCCCCCCCCCCCCC [hexadecane]

Compound	mass density
c1ccncc1 [pyridine]	978.25 ± 0.27 kg/m3
Nc1ccccc1 [aniline]	1017.42 ± 0.2 kg/m3
